The numbers were not newly measured in patent US20250213501A1, “IMPROVING SEMEN QUALITY” (CEUTICS HEALTH GMBH, priority 2022, published 2025), which cites them from elsewhere.

The conditions of data set [1]: daily intake of 12 mg of spermidine provided in a plant extract (e.g., wheat germ extract).

Each structure is given as a SMILES string.

With `NCCCCNCCCN` [spermidine], the “NOAEL for a 70 kg person” value (70 kg person) is listed as 470 mg/day. Further, under “Til et al., Food and Chemical Toxicology 1997”, the “NOAEL (No Observed Adverse Effect Level)” value is listed as 83 mg/kg body weight/day. Moreover, in data set [1], the “safety of daily intake” value is on record as “safe”.
